Experiment [1] addresses T1, Serine/threonine-protein kinase TBK1 (Homo sapiens, UniProt Q9UHD2).
T1 sequence (Q9UHD2 whole entry): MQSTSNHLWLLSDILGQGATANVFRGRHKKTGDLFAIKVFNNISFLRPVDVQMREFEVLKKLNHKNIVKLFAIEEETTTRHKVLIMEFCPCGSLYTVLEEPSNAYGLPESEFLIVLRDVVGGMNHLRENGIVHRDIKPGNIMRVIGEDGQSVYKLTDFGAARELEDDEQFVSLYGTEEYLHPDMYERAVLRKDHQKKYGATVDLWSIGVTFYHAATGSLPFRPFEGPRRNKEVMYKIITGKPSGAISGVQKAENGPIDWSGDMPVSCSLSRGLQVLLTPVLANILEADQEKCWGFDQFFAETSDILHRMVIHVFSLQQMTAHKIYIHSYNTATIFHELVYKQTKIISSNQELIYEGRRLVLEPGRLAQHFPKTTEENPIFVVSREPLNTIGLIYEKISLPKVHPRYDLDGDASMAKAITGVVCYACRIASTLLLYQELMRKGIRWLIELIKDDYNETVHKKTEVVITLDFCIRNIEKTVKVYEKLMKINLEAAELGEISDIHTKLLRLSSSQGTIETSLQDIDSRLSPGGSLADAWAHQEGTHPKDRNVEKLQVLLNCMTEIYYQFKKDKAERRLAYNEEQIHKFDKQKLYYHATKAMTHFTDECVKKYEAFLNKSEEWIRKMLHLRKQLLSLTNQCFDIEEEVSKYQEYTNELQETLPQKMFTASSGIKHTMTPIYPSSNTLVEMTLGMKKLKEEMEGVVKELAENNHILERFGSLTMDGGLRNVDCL
The experiment is described as follows: TBK Biochemical Assay. As to the method: (§1) Test compounds were transferred into Labcyte polypropylene 384 well plates (P055-25) and diluted to 3 mM using DMSO. 3 mM test compounds were dispensed using Labcyte ECHO dose response module into Greiner 784075 plates (columns 3-12 and 13-22, 10 point 1:4) so that high concentration was 30 uM final. 100 uM of a reference compound (1 uM final high concentration). Backfilling was performed if necessary so that all wells contain 1% DMSO final:add 75 nl DMSO/well into columns 1, 2 and 24 using Labcyte Echo.add 75 nl 1.0 mM staurosporine/well into column 23 using Labcyte Echo (10 uM final)add 4.5 ul enzyme/well using multidrop dispenseradd 3 ul substrate/well using multidrop dispenserincubate at 25° C. in Heidolph incubator for 90 min.add 7.5 ul 2× stop buffer using multidrop dispenserread on labchip ez reader II using TBK1.jobRaw data files were opened in the Caliper LabChip Reviewer program (Version 3.0.265.0 SP2) and peak assignments were adjusted to reflect substrate first with the software's post-run analysis options. A spline-fit baseline was applied using the software's analysis algorithm.

The target in experiment [2] is T2, Inhibitor of nuclear factor kappa-B kinase subunit epsilon (Homo sapiens, UniProt Q14164).
T2 sequence (Q14164 whole entry): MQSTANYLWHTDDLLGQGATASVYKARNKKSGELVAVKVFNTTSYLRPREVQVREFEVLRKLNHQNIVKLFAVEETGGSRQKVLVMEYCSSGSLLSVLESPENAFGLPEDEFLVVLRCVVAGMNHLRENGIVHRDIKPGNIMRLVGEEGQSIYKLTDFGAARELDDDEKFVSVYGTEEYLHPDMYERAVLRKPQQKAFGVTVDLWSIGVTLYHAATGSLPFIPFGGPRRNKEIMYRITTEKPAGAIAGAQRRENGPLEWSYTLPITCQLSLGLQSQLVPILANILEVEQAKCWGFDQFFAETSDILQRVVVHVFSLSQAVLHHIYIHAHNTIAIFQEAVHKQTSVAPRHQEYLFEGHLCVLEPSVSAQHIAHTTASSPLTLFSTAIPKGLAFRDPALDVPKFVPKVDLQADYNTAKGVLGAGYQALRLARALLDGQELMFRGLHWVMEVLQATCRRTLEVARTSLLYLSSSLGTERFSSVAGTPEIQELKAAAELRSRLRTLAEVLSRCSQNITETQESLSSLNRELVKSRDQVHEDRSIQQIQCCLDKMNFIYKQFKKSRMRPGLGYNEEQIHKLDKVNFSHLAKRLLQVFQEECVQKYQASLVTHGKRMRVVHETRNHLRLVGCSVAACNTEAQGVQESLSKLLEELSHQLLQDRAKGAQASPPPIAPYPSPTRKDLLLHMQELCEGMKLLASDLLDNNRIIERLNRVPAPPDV
Nature of the experiment: IKKe Biochemical Assay. As to the method:
as §1, with “C.” for “C. in Heidolph incubator”, “bufferread” for “buffer using multidrop dispenserread”, “IKKε. jobRaw” for “TBK1.jobRaw”

The term IC50 denotes the concentration at which inhibition is half-maximal. A lower IC50 goes with higher potency. In the case of `COc1nc(Nc2cc(-c3ccc(O[C@@H]4CCN(C(=O)[C@@H](C)O)CC4(F)F)c(C#N)c3)ncn2)ccc1N1CCN(C2COC2)CC1` [US11440899, Example 96], the IC50 in experiment [1] and in experiment [2] was below 100 nM in each case.

The record behind these values is BindingDB's records for patent US11440899 (Merck Patent GmbH, 2022).
